Results: ChEMBL document CHEMBL3988442, “University of Dundee, Small-Polar-MMV Screening Library” (2021)
Where “and” joins values, the source holds several entries; their conditions need not be identical. Equal values may be shown once.

Assays:
Proteasome subunit beta = biological target: T1, Proteasome subunit beta (Trypanosoma cruzi, UniProt O96673); experiment: Trypanosoma cruzi proteasome chymotrypsin-like activity (TcProtChymo) assay.; assay type: functional
T1 sequence (O96673 whole entry): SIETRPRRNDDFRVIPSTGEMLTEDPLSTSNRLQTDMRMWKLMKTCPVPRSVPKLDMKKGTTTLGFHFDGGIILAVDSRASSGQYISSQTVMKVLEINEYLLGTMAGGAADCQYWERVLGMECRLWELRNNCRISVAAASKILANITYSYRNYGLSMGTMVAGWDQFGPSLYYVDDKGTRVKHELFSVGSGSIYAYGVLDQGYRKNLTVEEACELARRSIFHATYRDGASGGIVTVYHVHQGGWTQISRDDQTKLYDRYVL

[1] = Trypanosoma cruzi proteasome luciferase counter-screen; assay type: functional, N/A
[2] = biological target: T2, Coenzyme A biosynthesis bifunctional protein CoaBC (Mycobacterium tuberculosis (strain ATCC 25618 / H37Rv), UniProt P9WNZ1); experiment: Biomol Green assay for MtCoaBC inhibitor, OD650 read; assay type: functional
T2 sequence (P9WNZ1 whole entry): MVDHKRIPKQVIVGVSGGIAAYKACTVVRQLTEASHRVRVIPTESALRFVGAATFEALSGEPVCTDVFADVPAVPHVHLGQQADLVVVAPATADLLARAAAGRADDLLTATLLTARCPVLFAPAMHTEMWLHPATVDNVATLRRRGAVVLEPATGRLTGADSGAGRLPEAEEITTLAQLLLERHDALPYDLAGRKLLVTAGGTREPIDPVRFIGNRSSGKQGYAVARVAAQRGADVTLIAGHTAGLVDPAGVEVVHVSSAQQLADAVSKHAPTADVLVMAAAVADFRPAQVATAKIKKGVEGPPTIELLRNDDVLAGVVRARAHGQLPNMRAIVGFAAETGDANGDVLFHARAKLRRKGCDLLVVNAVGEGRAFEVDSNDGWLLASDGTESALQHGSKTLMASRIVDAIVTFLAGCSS

Histidine--tRNA ligase = biological target: T3, Histidine--tRNA ligase (Leishmania infantum, UniProt A4I591); experiment: Leishmania infantum Histidine tRNA synthetase (LdHisRS); assay type: functional
T3 sequence (A4I591 whole entry): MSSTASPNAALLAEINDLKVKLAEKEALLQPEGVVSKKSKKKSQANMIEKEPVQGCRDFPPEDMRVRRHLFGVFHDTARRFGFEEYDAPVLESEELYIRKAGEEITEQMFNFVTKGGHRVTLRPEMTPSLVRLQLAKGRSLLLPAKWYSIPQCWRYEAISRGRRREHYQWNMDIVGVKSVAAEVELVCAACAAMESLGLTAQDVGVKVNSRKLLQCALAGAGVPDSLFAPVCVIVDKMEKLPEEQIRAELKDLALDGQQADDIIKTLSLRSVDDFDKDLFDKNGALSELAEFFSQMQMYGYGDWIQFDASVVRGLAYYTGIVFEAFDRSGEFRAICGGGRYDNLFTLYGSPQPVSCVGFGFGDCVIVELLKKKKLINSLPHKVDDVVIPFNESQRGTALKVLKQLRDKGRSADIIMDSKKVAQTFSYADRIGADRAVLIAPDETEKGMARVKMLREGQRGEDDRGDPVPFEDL

[3] = To identify inhibition of the IFN signalling (Jak-Stat) pathway via expression of an eGFP reporter gene under the control of an IFN-stimulated response element (ISRE) containing MxA promoter.; assay type: functional, Homo sapiens
[4] = biological target: AMP-activated protein kinase, AMPK; experiment: AMP-dependent Kinase enzyme assay. An in vitro enzyme assay that detects ADP turnover that is directly proportional to AMPK activity. This uses naive AMPK that is activated during the assay with MK-8722; assay type: functional, Homo sapiens
Plasmodium falciparum [5] = experiment: Plasmodium falciparum sporozoite viability assay; assay type: functional, organism-based
Schistosoma mansoni = experiment: High throughput screening of compounds against Schistosoma mansoni motility; assay type: functional; set-up: dose or concentration left out as unconfirmed
Plasmodium falciparum [6] = experiment: Calibr Malaria Delayed Death Assay SOP; assay type: functional, organism-based
Trypanosoma brucei = experiment: Trypanosoma brucei 72 hour study; assay type: functional, organism-based
Leishmania donovani = experiment: Leishmania intramacrophage assay; assay type: functional, organism-based
ClpP1P2 = ClpP1P2 (Mycobacterium tuberculosis (strain ATCC 25618 / H37Rv), UniProt P9WPC3+P9WPC5); experiment: in vitro assay to detect presence of AMC directly proportional to the activity of ClpP1P2. GHDDI collaboration.; assay type: functional
[7] = biological target: Polyketide synthase Pks13 (Mycobacterium tuberculosis (strain ATCC 25618 / H37Rv), UniProt I6X8D2); experiment: Mycobacterium tuberculosis Polyketide synthase 13 Thioesterase (PKS13); assay type: functional
[8] = microbe, parasite or virus in culture; conditions: Mycobacterium tuberculosis, 72 h, read-out: pIC50 (converted)
[9] = microbe, parasite or virus in culture; conditions: Mycobacterium tuberculosis, 96 h, read-out: pIC50 (converted)

Sequence of Polyketide synthase Pks13 (I6X8D2 whole entry): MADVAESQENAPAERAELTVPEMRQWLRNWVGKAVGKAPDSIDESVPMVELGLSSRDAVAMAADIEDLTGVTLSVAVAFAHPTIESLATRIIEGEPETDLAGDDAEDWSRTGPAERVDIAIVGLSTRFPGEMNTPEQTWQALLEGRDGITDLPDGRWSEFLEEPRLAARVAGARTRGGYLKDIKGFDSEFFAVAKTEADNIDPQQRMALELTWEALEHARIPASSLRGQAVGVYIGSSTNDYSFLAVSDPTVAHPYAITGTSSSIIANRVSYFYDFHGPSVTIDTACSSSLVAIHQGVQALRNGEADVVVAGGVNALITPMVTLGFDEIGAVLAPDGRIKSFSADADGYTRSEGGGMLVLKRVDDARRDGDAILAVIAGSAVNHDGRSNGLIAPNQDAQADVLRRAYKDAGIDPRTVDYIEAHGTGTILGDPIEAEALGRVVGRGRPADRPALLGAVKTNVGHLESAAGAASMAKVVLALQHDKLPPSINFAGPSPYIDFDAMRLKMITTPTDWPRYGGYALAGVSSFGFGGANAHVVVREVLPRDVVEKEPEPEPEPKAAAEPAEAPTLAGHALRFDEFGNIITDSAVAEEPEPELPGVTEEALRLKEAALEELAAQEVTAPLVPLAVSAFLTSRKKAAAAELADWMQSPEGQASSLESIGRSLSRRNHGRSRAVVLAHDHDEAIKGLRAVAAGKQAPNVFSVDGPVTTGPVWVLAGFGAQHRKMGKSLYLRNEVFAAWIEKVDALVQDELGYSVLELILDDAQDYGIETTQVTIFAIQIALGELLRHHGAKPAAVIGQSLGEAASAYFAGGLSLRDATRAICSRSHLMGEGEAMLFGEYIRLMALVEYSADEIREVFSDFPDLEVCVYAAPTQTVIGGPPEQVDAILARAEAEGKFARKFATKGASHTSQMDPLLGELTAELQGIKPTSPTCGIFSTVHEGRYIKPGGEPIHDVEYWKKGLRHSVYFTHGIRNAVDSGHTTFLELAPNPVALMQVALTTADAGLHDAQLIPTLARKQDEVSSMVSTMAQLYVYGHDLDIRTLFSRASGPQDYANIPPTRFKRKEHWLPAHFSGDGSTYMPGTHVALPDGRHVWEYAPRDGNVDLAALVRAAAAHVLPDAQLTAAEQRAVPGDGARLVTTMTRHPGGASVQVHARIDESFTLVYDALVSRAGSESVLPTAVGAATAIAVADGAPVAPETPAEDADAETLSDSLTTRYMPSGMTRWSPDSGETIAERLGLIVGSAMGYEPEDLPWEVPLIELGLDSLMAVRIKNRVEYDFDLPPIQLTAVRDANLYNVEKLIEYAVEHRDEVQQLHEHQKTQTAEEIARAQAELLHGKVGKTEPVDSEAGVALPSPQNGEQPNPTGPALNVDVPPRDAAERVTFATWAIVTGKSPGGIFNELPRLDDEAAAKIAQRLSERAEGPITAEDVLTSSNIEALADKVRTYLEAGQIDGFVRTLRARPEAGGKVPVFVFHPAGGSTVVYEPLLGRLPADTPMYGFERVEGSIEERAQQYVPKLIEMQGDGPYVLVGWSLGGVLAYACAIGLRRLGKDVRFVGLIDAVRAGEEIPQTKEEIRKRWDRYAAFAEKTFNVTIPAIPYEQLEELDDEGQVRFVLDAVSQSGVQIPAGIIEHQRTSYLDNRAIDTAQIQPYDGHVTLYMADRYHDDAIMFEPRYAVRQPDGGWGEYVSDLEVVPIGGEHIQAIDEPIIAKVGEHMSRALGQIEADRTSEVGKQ
Sequence of ClpP1P2 (P9WPC5 whole entry): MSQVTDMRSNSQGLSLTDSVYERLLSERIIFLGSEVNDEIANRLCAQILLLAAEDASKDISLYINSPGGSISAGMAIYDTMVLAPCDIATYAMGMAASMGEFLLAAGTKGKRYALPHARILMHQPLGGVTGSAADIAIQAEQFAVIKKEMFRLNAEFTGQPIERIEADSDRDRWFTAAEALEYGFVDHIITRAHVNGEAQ
Sequence of ClpP1P2 (P9WPC3 whole entry): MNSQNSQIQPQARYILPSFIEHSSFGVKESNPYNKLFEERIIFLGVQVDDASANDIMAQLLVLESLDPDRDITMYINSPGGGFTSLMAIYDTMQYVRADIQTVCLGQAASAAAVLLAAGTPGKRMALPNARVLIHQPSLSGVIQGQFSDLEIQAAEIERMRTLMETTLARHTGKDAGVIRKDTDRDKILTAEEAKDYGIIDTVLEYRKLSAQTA

Structure (SMILES) | IC50 (Proteasome subunit beta) | pIC50 [1] | further results
c1ccc2sc(N3CCOC(Cn4cccn4)C3)nc2c1 (stereo unspecified) | 18 µM and 17.7 µM | 4.135 and 4.203 | 
Cc1cnn(C2CN(CC(=O)NCc3ccccn3)C2)c1 | 14.9 µM and 19.7 µM | < 4 | IC50 [2]: > 30.2 µM; IC50 (Histidine--tRNA ligase): > 100 µM
CC(C)n1ccc(-c2cc(C(=O)N3CCCC3)c3ccccn23)n1 |  |  | pIC50 [3]: < 4.21; pIC50 [4]: < 4
Cc1ccc(N(C)C2CCN(C(=O)CCc3ccco3)CC2)nn1 | 12.8 µM and 16.7 µM | < 4 | IC50 [2]: > 30.2 µM; IC50 (Histidine--tRNA ligase): 41.4 µM and 49.7 µM
Cc1ccc(N2CC[C@H]3O[C@@H](C(=O)NCc4ccco4)CC[C@H]32)nn1.O=C(O)C(F)(F)F | > 100 µM | < 4 | 
O=C(c1ccc(C2CCCO2)s1)N1Cc2ccccc2C1 (stereo unspecified) | 16.1 µM and 11.4 µM | 4.241 and < 4 | 
COc1cccc(-c2nc(CNCCn3cccn3)cs2)c1 | 13.4 µM and 11.8 µM | 4.359 and 4.346 | 
CC(O)CNCc1ccc(OCc2ccc3c(c2)OCCO3)cc1.Cl (stereo unspecified) | 9.3 µM and 9.77 µM | 4.507 and 4.501 | pIC50 (Plasmodium falciparum [5]): 6.937; IC50 (Plasmodium falciparum [5]; Plasmodium falciparum): 90.3 nM
CC(C)c1cc2c(O)nc(CSCC(=O)O)nc2s1 | 7.28 µM and 8.24 µM | 4.494 and 4.54 | 
Cc1nc[nH]c1CN(C)CC1CCCN(CCc2ccc(Cl)cc2)C1 (stereo unspecified) |  |  | pIC50 [3]: 4.612 and 4.41; Percent Effect (Schistosoma mansoni): 102.7%; pIC50 (Plasmodium falciparum [6]): 6.162; IC50 (Plasmodium falciparum [6]; Plasmodium falciparum): 565 nM; pIC50 (Trypanosoma brucei): 5.168 and 5.164; IC50 (Trypanosoma brucei; Trypanosoma brucei, 72 h): 6.79 µM; pIC50 (Leishmania donovani): 5.148; IC50 (Leishmania donovani; Leishmania donovani): 8.56 µM
O=C(CC1CN(Cc2ccccc2)CCO1)Nc1ccccc1F (stereo unspecified) | 12.6 µM and 13.6 µM | 4.434 and 4.445 | 
COc1cccc(-c2noc(C3CCN(Cc4cccs4)C3)n2)c1.Cl (stereo unspecified) | 13.9 µM and 12.6 µM | 4.852 and 4.875 | 
Cn1cccc1C(=O)N1CCC2(CC1)CN(c1cncnc1)C(=O)CO2 | > 100 µM | < 4 | 
CCc1nc(COc2ccc(OCc3cnn(C)c3)cc2)no1 | 12.3 µM and 13.3 µM | 4.267 and 4.334 | 
CC(C1CC1)N(C)C(=O)c1cnc(-c2ccc3c(c2)OCO3)s1 (stereo unspecified) | 13.7 µM and 13.1 µM | 4.375 and 4.324 | Percent Effect (Schistosoma mansoni): 12.48%
NC(=O)c1nc(COc2ccc3c(c2)OCO3)no1 | 8.85 µM and 10.5 µM | < 4 | 
Cl.c1ccc(-c2ccc(C3CNCCO3)nc2)cc1 (stereo unspecified) | 13.7 µM and 13 µM | 4.18 and 4.164 | 
COc1cccc(C(=O)NCC(O)c2cccs2)c1 (stereo unspecified) | 16.9 µM and 18.4 µM | 4.037 and < 4 | Percent Effect (Schistosoma mansoni): -12.61%
Cc1ccc(NCc2cncc3c2CCN(C(=O)C2CC=CC2)C3)nn1.Cl | > 100 µM | < 4 | 
CCc1nnc2n1CCN(Cc1csc(-c3ccc(C)o3)n1)C2 | > 100 µM | < 4 | 
Cc1ccc(C(=O)Nc2cn[nH]c2)cc1C | 13.3 µM and 12.6 µM | 4.136 and 4.208 | 
CO[C@@H]1CN(Cc2scnc2C)[C@@H]2CCCO[C@@H]21.O=C(O)C(F)(F)F.O=C(O)C(F)(F)F | 8.6 µM and 10.8 µM | < 4 | IC50 (ClpP1P2): > 100 µM
Cc1nc(CN2CCCC(N(C)Cc3cscn3)C2)no1 (stereo unspecified) | 34.8 µM and 26.4 µM | < 4 | 

Structure (SMILES) | IC50 (Proteasome subunit beta) | pIC50 [1] | further results
CCOc1cc(/C=C/c2ncc(C(=O)O)s2)ccc1O | 15.5 µM and 21.9 µM | 4.099 and 4.094 | 
Cc1ccc(-c2nc(CN3CCC(C(=O)N(C)C)CC3)cs2)o1 | 46.3 µM and 43.1 µM | < 4 | 
CNC(=O)c1cnc(/C=C/c2ccc(OC)c(O)c2)s1 | 17.4 µM and 13.8 µM | 4.132 and < 4 | 
Cc1cc(N2CCN(CC(=O)N(C)C)CC2)nc(-c2ccncc2)n1 | > 100 µM | < 4 | IC50 (Histidine--tRNA ligase): > 100 µM
CN(C(=O)Cc1ccc(NC(=O)NC2CCC2)cc1)c1ccccc1 | > 100 µM | < 4 | 
Cc1cc(C(C)C(=O)N2CCCN(Cc3cscn3)CC2)c(C)o1 (stereo unspecified) | > 100 µM | < 4 | 
COc1cccc(-c2nc(C)c(C(=O)NC(CO)CCSC)s2)c1 (stereo unspecified) | 27.3 µM and 32.3 µM | 4.212 | 
O=C(NCCCN1CCOCC1)c1ccn(-c2ccc3ccccn23)n1.O=C(O)C(F)(F)F | > 100 µM | < 4 | 
CC(C)=CCN1C[C@H]2CC[C@@H]1CN(C(=O)c1c[nH]c(=O)c(Cl)c1)C2 | > 100 µM | < 4 | 
O=C(c1cn(-c2ccccc2Cl)nn1)N1CCCSCC1 | 14.2 µM and 16.4 µM | 4.282 and 4.315 | 
Cc1cc(S(=O)(=O)Nc2cccc(-n3cccc3)c2)sc1C(=O)O | 16.4 µM and 18.9 µM | < 4 | IC50 [2]: > 30.2 µM; IC50 [7]: 2380 nM and 803 nM
O=C(Nc1ccc(F)c(Br)c1)N1CCCC1 | 11.4 µM and 11.2 µM | < 4 | 
CNS(=O)(=O)Cc1ccc(CNc2cncc(-n3cccn3)n2)cc1 | 10.5 µM and 10.6 µM | 4.398 and 4.427 | IC50 (ClpP1P2): > 100 µM
Cc1cc(C(=O)N2CCC3(CCCN(CC4CC4)C3=O)C2)c(C)n1C (stereo unspecified) | > 100 µM and 85.7 µM | < 4 | 
Cc1ccc(-c2cc(C(=O)NC(C)C(=O)N3CCCCC3)on2)cc1 (stereo unspecified) | 26.1 µM and 26.7 µM | 4.246 and 4.264 | 
CCc1nc(CN2CCCN(C(=O)CCc3ccco3)CC2)cs1 | > 100 µM | < 4 | 
Cc1cnn(CC2CN(c3cnc4ccccc4n3)CCO2)c1 (stereo unspecified) | 17.8 µM and 19.4 µM | 4.14 and 4.151 | IC50 [8]: 16.4 µM; IC50 [9]: 14.4 µM
CCCC(NC(=O)c1cc(C)n(C2CC2)c1C)c1nnn[nH]1 (stereo unspecified) | 55.7 µM and 67.9 µM | < 4 | 
Cc1cnn(CC2CCCN2CC(=O)N(C)Cc2ccc(C)o2)c1 (stereo unspecified) | > 100 µM | < 4 | 
CN(C)c1cc(CNC(=O)Nc2ccc(F)cc2)ccn1 | 14.4 µM and 16.9 µM | 4.234 and 4.227 | 
Cc1nc(CN2CCOC(CNc3cccnn3)C2)oc1C (stereo unspecified) | > 100 µM | < 4 | 
Cc1cc(C(=O)N2CCc3nnc(N)cc3C2)c(C)n1-c1cccnc1 | > 100 µM | < 4 | 
